According to patent US11014964B2, “Peptide amide compound and preparation method and medical use thereof” (Sichuan Haisco Pharmaceutical Co., Ltd., priority 2017, dated 2021):

Columns and labels:
human κ-opioid receptor = molecular target: T1, human κ-opioid receptor (Homo sapiens, UniProt P41145); assay: Agonist activity on human κ-opioid receptors (inhibition of forskolin-stimulated cAMP release, TR-FRET); type: cell-based; conditions: OPRK1 cells (DiscoveRx)
T1 construct: host or cells: OPRK1 cells (DiscoveRx)
Excerpt: Test 1: Agonist Activity on Human κ-Opioid Receptors
Forskolin can stimulate the release of cAMP from a human κ-opioid receptor-overexpressing cell line, OPRK1 cells (DiscoveRx), and κ-opioid receptor agonists can inhibit the cAMP release stimulated by forskolin. By detecting the inhibitory effect of the test compound on the cAMP release stimulated by forskolin, the agonistic activity of the compound on the human κ-opioid receptor can be determined. First, a certain concentration of forskolin and different concentrations of the test compound were incubated with human κ-opioid receptor overexpressing cell lines. A cAMP immunoassay (LANCE®, PerkinElmer) based on time-resolved fluorescence resonance energy transfer (TR-FRET) was used to determine cAMP levels in the stimulated OPRK1 cells. The specific method is as follows:
OPRK1 cells (DiscoveRx) that highly express human κ-opioid receptors were cultured in McCoy's 5A (Gibco 16600-082) medium containing 10% FBS (Gibco 10099-141). On the day of the experiment, the cells in the exponential growth phase were washed and separated with PBS/5 mM EDTA, collected by centrifugation, resuspended with Stimulation Buffer and counted. The concentration of cells was adjusted to 3*10^5 cells/ml. DMSO was used to dissolve Forskolin and the test compound respectively, so that the mother liquor concentration each was 10 mM, and then diluted Forskolin to […] with Stimulation Buffer, and different concentrations of the test compound (the concentrations were 80, 16, 3.2, 0.64, 0.128, 0.0256, 0.00512, 0.001024, 0 μM) was added, 5 μl per well was added to a 384-well plate. 5 μl of cell suspension was added to each well and incubated at room temperature for 30 min. Subsequently, 5 μl of 4×Eu-cAMP tracer working solution (50-fold dilution of Eu-cAMP stock solution with cAMP Detection Buffer) and 5 μl of 4×Ulight-anti-cAMP working solution (150-fold dilution of ULight-anti-cAMP stock solution with cAMP Detection Buffer) were added to each well, and incubated at room temperature for 1 hour. 384-well plates were assayed for cAMP levels using a microplate reader (Perkin Elmer, Envision) TR-FRET method. The obtained data were processed and fitted to EC50 using the origin 7.5 software. The human κ-opioid receptor agonistic activity of the compound of the present invention was measured through the above experiments, and the measured EC50 values are shown in Table 1.
Stimulation Buffer preparation method: 14 mL 1*HBSS (invitrogen, cat. #14025-092), 75 μL 1 M HEPES (Invitrogen, cat. #15630-080), 30 μL 250 mM IBMX was dissolved in DMSO (Sigma, cat. #17018) and mixed with 200 μL 7.5% BSA Stabilizer. pH of the solution was adjusted to 7.4 with 0.1 N NaOH and make up to 15 mL with 1*HBSS.

Rat PK test = type: in vivo; conditions: male SD rats, iv, 1 mg/kg (calculated in free form)
Mouse PK test = type: in vivo; conditions: plasma, male ICR mice, iv, 1 mg/kg (calculated in free form)

T1 sequence (P41145 whole entry): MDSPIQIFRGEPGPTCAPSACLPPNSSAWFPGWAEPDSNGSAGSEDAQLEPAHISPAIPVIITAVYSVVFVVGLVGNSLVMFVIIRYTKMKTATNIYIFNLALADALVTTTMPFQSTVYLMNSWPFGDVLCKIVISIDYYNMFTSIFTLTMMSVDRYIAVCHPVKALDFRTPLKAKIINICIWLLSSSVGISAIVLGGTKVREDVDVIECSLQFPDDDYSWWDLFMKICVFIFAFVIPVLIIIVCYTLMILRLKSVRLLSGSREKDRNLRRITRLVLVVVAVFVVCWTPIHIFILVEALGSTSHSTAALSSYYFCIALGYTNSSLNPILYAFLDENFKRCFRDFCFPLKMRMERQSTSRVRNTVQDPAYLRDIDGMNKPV

SMILES | EC50 (human κ-opioid receptor) [nM] | also measured
CC(C)C[C@@H](NC(=O)[C@@H](Cc1ccccc1)NC(=O)[C@H](N)Cc1ccccc1)C(=O)N[C@H](CCCCN)C(=O)N1CC2(CCN(C3COC3)CC2)C1 [Compound 33, (2R)—N-[(1R)-5-amino-1-[7-(oxetan-3-yl)-2,7-diazaspiro[3.5]nonane-2-carbonyl]pentyl]-2-[[(2R)-2-[[(2R)-2-amino-3-phenyl-propanoyl]amino]-3-phenyl-propanoyl]amino]-4-methyl-pentanamide; tri-trifluoroacetic acid] | 0.05 | 
CC(=O)N1CCC2(CC1)CN(C(=O)[C@@H](CCCCN)NC(=O)[C@@H](CC(C)C)NC(=O)[C@@H](Cc1ccccc1)NC(=O)[C@H](N)Cc1ccccc1)C2 [Compound 20, (2R)—N-[(1R)-1-(7-acetyl-2,7-diazaspiro[3.5]nonane-2-carbonyl)-5-amino-pentyl]-2-[[(2R)-2-[[(2R)-2-amino-3-phenyl-propanoyl]amino]-3-phenyl-propanoyl]amino]-4-methyl-pentanamide; di-trifluoroacetic acid] | 0.086 | 
CC(C)C[C@@H](NC(=O)[C@@H](Cc1ccccc1)NC(=O)[C@H](N)Cc1ccccc1)C(=O)N[C@H](CCCCN)C(=O)N1CCC(N)(C(=O)O)CC1 [CR-845] |  | Cl (Rat PK test): 8.29 ml/kgmin; AUC(0-t) (Rat PK test; rat, plasma): 1960 ng·h/mL; half-life (Rat PK test; rat, plasma): 3.9 h; Vd (Rat PK test; rat, plasma, read-out: Vdss): 1.56 L/kg; AUC(0-t) (Mouse PK test): 1120 ng·h/mL; half-life (Mouse PK test): 0.388 h
CC(C)C[C@@H](NC(=O)[C@@H](Cc1ccccc1)NC(=O)[C@H](N)Cc1ccccc1)C(=O)N[C@H](CCCCN)C(=O)N1CC2(CCN(S(C)(=O)=O)CC2)C1 [Compound 12, (2R)—N-[(1R)-5-amino-1-(7-methylsulfonyl-2,7-diazaspiro[3.5]nonane-2-carbonyl)pentyl]-2-[[(2R)-2-[[(2R)-2-amino-3-phenyl-propanoyl]amino]-3-phenyl-propanoyl]amino]-4-methyl-pentanamide; di-trifluoroacetic acid] | 0.067 | 
CC(=O)N1CCC2(C1)CN(C(=O)[C@@H](CCCCN)NC(=O)[C@@H](CC(C)C)NC(=O)[C@@H](Cc1ccccc1)NC(=O)[C@H](N)Cc1ccccc1)C2 [Compound 30, (2R)—N-[(1R)-1-(7-acetyl-2,7-diazaspiro[3.4]octane-2-carbonyl)-5-amino-pentyl]-2-[[(2R)-2-[[(2R)-2-amino-3-phenyl-propanoyl]amino]-3-phenyl-propanoyl]amino]-4-methyl-pentanamide; di-trifluoroacetic acid] | 0.071 | 
CC(C)C[C@@H](NC(=O)[C@@H](Cc1ccccc1)NC(=O)[C@H](N)Cc1ccccc1)C(=O)N[C@H](CCCCN)C(=O)N1CCC2(CC1)CN(C(=O)N1CCCC1)C2 [Compound 13, (2R)-2-[[(2R)-2-[[(2R)-2-amino-3-phenyl-propanoyl]amino]-3-phenyl-propanoyl]amino]-N-[(1R)-5-amino-1-[2-(pyrrolidin-1-carbonyl)-2,7-diazaspiro[3.5]nonane-7-carbonyl]pentyl]-4-methyl-pentanamide; di-trifluoroacetic acid] | 0.00682 | 
CC(C)C[C@@H](NC(=O)[C@@H](Cc1ccccc1)NC(=O)[C@H](N)Cc1ccccc1)C(=O)N[C@H](CCCCN)C(=O)N1CC2(CCN(C(=O)[C@@H](C)N)CC2)C1 [Compound 18, (2R)—N-[(1R)-5-amino-1-[7-[(2R)-2-aminopropanoyl]-2,7-diazaspiro[3.5]nonane-2-carbonyl]pentyl]-2-[[(2R)-2-[[(2R)-2-amino-3-phenyl-propanoyl]amino]-3-phenyl-propanoyl]amino]-4-methyl-pentanamide; tri-trifluoroacetic acid] | 0.04 | 
CC(C)C[C@@H](NC(=O)[C@@H](Cc1ccccc1)NC(=O)[C@H](N)Cc1ccccc1)C(=O)N[C@H](CCCCN)C(=O)N1CC2(CCN(C(=O)[C@@H](C)N)CC2(F)F)C1 [Compound 19, (2R)—N-[(1R)-5-amino-1-[7-[(2R)-2-aminopropanoyl]-5,5-difluoro-2,7-diazaspiro[3.5]nonane-2-carbonyl]pentyl]-2-[[(2R)-2-[[(2R)-2-amino-3-phenyl-propanoyl]amino]-3-phenyl-propanoyl]amino]-4-methyl-pentanamide; tri-trifluoroacetic acid] | 0.044 | 
CC(C)C[C@@H](NC(=O)[C@@H](Cc1ccccc1)NC(=O)[C@H](N)Cc1ccccc1)C(=O)N[C@H](CCCCN)C(=O)N1CCC2(CC1)CN(C(=O)N1CC(S(C)(=O)=O)C1)C2 [Compound 14, (2R)—N-[(1R)-5-amino-1-[2-(3-methylsulfonylazetidine-1-carbonyl)-2,7-diazaspiro[3.5]nonane-7-carbonyl]pentyl]-2-[[(2R)-2-[[(2R)-2-amino-3-phenyl-propanoyl]amino]-3-phenyl-propanoyl]amino]-4-methyl-pentanamide; di-trifluoroacetic acid] | 0.0155 | 
CC(C)C[C@@H](NC(=O)[C@@H](Cc1ccccc1)NC(=O)[C@H](N)Cc1ccccc1)C(=O)N[C@H](CCCCN)C(=O)N1CCC2(CC1)CN(C(=O)[C@@H](C)N)C2 [Compound 17, (2R)—N-[(1R)-5-amino-1-[2-[(2R)-2-aminopropanoyl]-2,7-diazaspiro[3.5]nonane-7-carbonyl]pentyl]-2-[[(2R)-2-[[(2R)-2-amino-3-phenyl-propanoyl]amino]-3-phenyl-propanoyl]amino]-4-methyl-pentanamide; tri-trifluoroacetic acid] | 0.00919 | AUC(0-t) (Mouse PK test): 2240 ng·h/mL; half-life (Mouse PK test): 3.88 h
CC(C)C[C@@H](NC(=O)[C@@H](Cc1ccccc1)NC(=O)[C@H](N)Cc1ccccc1)C(=O)N[C@H](CCCCN)C(=O)N1CCC2(CC1)CC(N1CCCCC1)C2 [Compound 23, (2R)-2-[[(2R)-2-[[(2R)-2-amino-3-phenyl-propanoyl]amino]-3-phenyl-propanoyl]amino]-N-[(1R)-5-amino-1-[2-(1-piperidinyl)-7-azaspiro[3.5]nonane-7-carbonyl]pentyl]-4-methyl-pentanamide; tri-trifluoroacetic acid] | 0.023 | 
CC(=O)N1CCC2(CCN(C(=O)[C@@H](CCCCN)NC(=O)[C@@H](CC(C)C)NC(=O)[C@@H](Cc3ccccc3)NC(=O)[C@H](N)Cc3ccccc3)C2)C1 (stereo partly drawn) [Compound 31, (2R)—N-[(1R)-1-(7-acetyl-2,7-diazaspiro[4.4]nonane-2-carbonyl)-5-amino-pentyl]-2-[[(2R)-2-[[(2R)-2-amino-3-phenyl-propanoyl]amino]-3-phenyl-propanoyl]amino]-4-methyl-pentanamide; di-trifluoroacetic acid] | 0.0136 | 
CNC(=O)N1CCC2(CCN(C(=O)[C@@H](CCCCN)NC(=O)[C@@H](CC(C)C)NC(=O)[C@@H](Cc3ccccc3)NC(=O)[C@H](N)Cc3ccccc3)C2)C1 (stereo partly drawn) [Compound 22, 7-[(2R)-6-amino-2-[[(2R)-2-[[(2R)-2-[[(2R)-2-amino-3-phenyl-propanoyl]amino]-3-phenyl-propanoyl]amino]-4-methyl-pentanoyl]amino]hexanoyl]-N-methyl-2,7-diazaspiro[4.4]nonane-2-carboxamide; di-trifluoroacetic acid] | 0.0112 | 
